The subject of one assay is A2AR. As to conditions: ref [36]; cited from earlier work.
The test system of a further assay is Nb6E-E2-PTHR1. In words: cell signaling assay Nb6E-E2-PTHR1. Type of assay: cell-based. The note with it: comparison with past work ref [26].

The values below come from publication PMC10200341 (Bioconjugate chemistry, 2022).

As for `CCNC(=O)[C@H]1O[C@@H](n2cnc3c(N)nc(NCCc4ccc(CCC(=O)O)cc4)nc32)[C@H](O)[C@@H]1O` [CGS21680], the A2AR agonism result in the assay with A2AR is listed as “potent agonist of A2AR”. As to PTH(1–34): prototypical PTHR1 ligand, the “potency relative to past work using wild-type PTHR1” value in the assay with Nb6E-E2-PTHR1 is “potency comparable to past work using wild-type PTHR1”.
